Test results reported in patent publication US6706709B2, “Indolinone derivatives as protein kinase/phosphatase inhibitors” (Sugen, Inc., priority 2000, dated 2004).

Tests used:
GST-Flk1 = GST-Flk1 (UniProt P35918); test: GST-FLK-1 bioassay (bio flkGST); assay type: biochemical
How it was run: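 ELISA with Sf9-expressed GST-Flk1cd (5 ng/well) phosphorylating plate-coated poly(Glu,Tyr) 4:1 in Hepes pH 7.5 with MnCl2 and ATP (2 μM as 4× stock), 15 min at room temperature; EDTA stop. Phosphotyrosine detected with PY99-HRP and ABTS at 410 nm.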

EGF Receptor = target: T1, EGF Receptor (Homo sapiens, UniProt P00533); test: bio EGF (EGF Receptor ELISA); assay type: biochemical
T1 construct: expressed in transfected cells; host or cells: NIH 3T3/C7 (mouse fibroblasts engineered to express human EGF-R)
How it was run: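 Cells engineered to express human EGFR, seeded in 0.5% serum for ~40 h, then exposed to drug (stock diluted to 1:200 final, 1% DMSO) before 5 min EGF stimulation at 25 nM final. Lysates captured on anti-EGFR-coated plates, and phosphotyrosine detected by anti-pTyr/HRP ELISA at 410 nm. Percent inhibition calculated relative to control wells after negative-control subtraction.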

T1 sequence (P00533 25-1210): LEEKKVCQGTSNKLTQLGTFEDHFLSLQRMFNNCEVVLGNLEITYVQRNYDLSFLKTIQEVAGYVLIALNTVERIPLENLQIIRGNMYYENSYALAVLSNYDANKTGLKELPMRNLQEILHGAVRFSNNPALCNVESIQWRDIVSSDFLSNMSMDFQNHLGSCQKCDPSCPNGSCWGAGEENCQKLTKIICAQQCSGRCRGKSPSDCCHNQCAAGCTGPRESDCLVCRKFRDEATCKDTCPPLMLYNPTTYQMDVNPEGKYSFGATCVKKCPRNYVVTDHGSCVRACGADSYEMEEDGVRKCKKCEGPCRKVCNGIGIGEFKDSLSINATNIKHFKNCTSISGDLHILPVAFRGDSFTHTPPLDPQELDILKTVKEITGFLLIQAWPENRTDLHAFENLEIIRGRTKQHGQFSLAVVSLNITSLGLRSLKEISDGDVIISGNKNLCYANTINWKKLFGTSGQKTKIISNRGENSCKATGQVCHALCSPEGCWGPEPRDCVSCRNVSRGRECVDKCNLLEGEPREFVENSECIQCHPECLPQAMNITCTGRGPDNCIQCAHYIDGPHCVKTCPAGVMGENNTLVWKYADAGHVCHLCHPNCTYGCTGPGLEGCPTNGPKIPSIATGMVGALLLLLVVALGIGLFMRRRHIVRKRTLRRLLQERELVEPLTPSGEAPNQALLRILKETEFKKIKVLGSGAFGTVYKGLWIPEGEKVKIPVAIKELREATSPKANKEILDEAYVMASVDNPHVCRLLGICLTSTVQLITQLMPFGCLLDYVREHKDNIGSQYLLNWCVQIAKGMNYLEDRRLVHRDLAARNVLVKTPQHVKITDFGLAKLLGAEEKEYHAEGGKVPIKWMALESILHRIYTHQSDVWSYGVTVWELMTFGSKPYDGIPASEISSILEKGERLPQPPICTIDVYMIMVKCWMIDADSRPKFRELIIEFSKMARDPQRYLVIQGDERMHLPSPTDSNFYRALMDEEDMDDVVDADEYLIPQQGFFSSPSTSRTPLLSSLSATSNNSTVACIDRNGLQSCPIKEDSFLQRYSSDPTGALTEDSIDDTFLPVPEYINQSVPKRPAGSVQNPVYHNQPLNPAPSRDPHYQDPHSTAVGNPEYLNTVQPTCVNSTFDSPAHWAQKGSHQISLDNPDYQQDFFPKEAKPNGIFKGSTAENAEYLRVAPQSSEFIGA

Row | Compound | IC50 (GST-Flk1) [µM] | IC50 (EGF Receptor) [µM]
1 | O=C1Nc2ccc(C(=O)O)cc2C1=Cc1cc2cc(OCCN3CCCC3)ccc2[nH]1 [IN-022, 2-oxo-3-[5-(2-pyrrolidin-1-yl-ethoxy)-1H-indol-2-ylmethylene]-2,3-dihydro-1H-indole-5-carboxylic acid] | 0.14 | > 20
2 | COc1ccccc1-c1ccc2c(c1)NC(=O)C2=Cc1cc2cc(OCCN3CCOCC3)ccc2[nH]1 [IN-037, 6-(2-methoxy-phenyl)-3-[5-(2-morpholin-4-yl-ethoxy)-1H-indol-2-ylmethylene]-1,3-dihydro-indol-2-one] | 4.38 | > 20
3 | CN(C)CCOc1ccc2[nH]c(C=C3C(=O)Nc4ccc(Br)cc43)cc2c1 [IN-011, 5-bromo-3-[5-(2-dimethylamino-ethoxy)-1H-indol-2-ylmethylene]-1,3-dihydro-indol-2-one] | 0.52 | 1.36
4 | O=C1Nc2ccccc2C1=Cc1cc2cc(OCCN3CCCC3)ccc2[nH]1 [IN-013, 3-[5-(2-pyrrolidin-1-yl-ethoxy)-1H-indol-2-ylmethylene]-1,3-dihydro-indol-2-one] | 0.1 | 41.3
5 | CCN(CC)CCCc1ccc2[nH]c(C=C3C(=O)Nc4cc(-c5ccccc5)ccc43)cc2c1 [IN-003, 3-[5-(3-diethylamino-propyl)-1H-indol-2-ylmethylene]-6-phenyl-1,3-dihydro-indol-2-one] | 1.56 | 61.3
6 | COc1ccc(-c2ccc3c(c2)NC(=O)C3=Cc2cc3cc(OCCN4CCOCC4)ccc3[nH]2)cc1 [IN-035, 6-(4-methoxy-phenyl)-3-[5-(2-morpholin-4-yl-ethoxy)-1H-indol-2-ylmethylene]-1,3-dihydro-indol-2-one] | > 20 | > 20
7 | O=C1Nc2cc(-c3ccc(F)cc3)ccc2C1=Cc1cc2cc(OCCN3CCOCC3)ccc2[nH]1 [IN-038, 6-(4-fluoro-phenyl)-3-[5-(2-morpholin-4-yl-ethoxy)-1H-indol-2-ylmethylene]-1,3-dihydro-indol-2-one] | > 10 | > 20
8 | COc1ccccc1-c1ccc2c(c1)NC(=O)C2=Cc1cc2cc(OCCN3CCCC3)ccc2[nH]1 [IN-028, 6-(2-methoxy-phenyl)-3-[5-(2-pyrrolidin-1-yl-ethoxy)-1H-indol-2-ylmethylene]-1,3-dihydro-indol-2-one] | 0.66 | 6.06
9 | CCN(CC)CCOc1ccc2[nH]c(C=C3C(=O)Nc4cc(-c5ccccc5)ccc43)cc2c1 [IN-018, 3-[5-(2-diethylamino-ethoxy)-1H-indol-2-ylmethylene]-6-phenyl-1,3-dihydro-indol-2-one] | 5.41 | > 100
10 | O=C1Nc2cc(-c3ccc(F)cc3)ccc2C1=Cc1cc2cc(OCCN3CCCC3)ccc2[nH]1 [IN-029, 6-(4-fluoro-phenyl)-3-[5-(2-pyrrolidin-1-yl-ethoxy)-1H-indol-2-ylmethylene]-1,3-dihydro-indol-2-one] | 0.76 | > 20
11 | COc1cccc(-c2ccc3c(c2)NC(=O)C3=Cc2cc3cc(OCCN4CCCC4)ccc3[nH]2)c1 [IN-027, 6-(3-methoxy-phenyl)-3-[5-(2-pyrrolidin-1-yl-ethoxy)-1H-indol-2-ylmethylene]-1,3-dihydro-indol-2-one] | 2.01 | > 20
12 | CCN(CC)CCOc1ccc2[nH]c(C=C3C(=O)Nc4ccc(Br)cc43)cc2c1 [IN-017, 5-bromo-3-[5-(2-diethylamino-ethoxy)-1H-indol-2-ylmethylene]-1,3-dihydro-indol-2-one] | 0.01 | 4.67
13 | O=C1Nc2ccc(-c3ccccc3)cc2C1=Cc1cc2cc(OCCN3CCCC3)ccc2[nH]1 [IN-006, 5-phenyl-3-[5-(2-pyrrolidin-1-yl-ethoxy)-1H-indol-2-ylmethylene]-1,3-dihydro-indol-2-one] | 0.16 | 4.69
14 | COc1cccc(-c2ccc3c(c2)NC(=O)C3=Cc2cc3cc(OCCN4CCOCC4)ccc3[nH]2)c1 [IN-036, 6-(3-methoxy-phenyl)-3-[5-(2-morpholin-4-yl-ethoxy)-1H-indol-2-ylmethylene]-1,3-dihydro-indol-2-one] | > 20 | > 20
15 | O=C1Nc2cc(-c3ccccc3)ccc2C1=Cc1cc2cc(OCCN3CCCC3)ccc2[nH]1 [IN-015, 6-phenyl-3-[5-(2-pyrrolidin-1-yl-ethoxy)-1H-indol-2-ylmethylene]-1,3-dihydro-indol-2-one] | 0.99 | 70.6
16 | CN(C)CCOc1ccc2[nH]c(C=C3C(=O)Nc4ccccc43)cc2c1 [IN-010, 3-[5-(2-dimethylamino-ethoxy)-1H-indol-2-ylmethylene]-1,3-dihydro-indol-2-one] | 0.35 | 88.8
17 | O=C1Nc2ccccc2C1=Cc1cc2cc(OCCN3CCOCC3)ccc2[nH]1 [IN-007, 3-[5-(2-morpholin-4-yl-ethoxy)-1H-indol-2-ylmethylene]-1,3-dihydro-indol-2-one] | 0.4 | 37.4

The next lines start with the values.

Row | IC50 (GST-Flk1) [µM] | IC50 (EGF Receptor) [µM] | Compound
18 | 1.05 | 1.23 | O=C1Nc2ccc(S(=O)(=O)N3CCc4ccccc43)cc2C1=Cc1cc2cc(OCCN3CCCC3)ccc2[nH]1 [IN-046, 5-(2,3-dihydro-indole-1-sulfonyl)-3-[5-(2-pyrrolidin-1-yl-ethoxy)-1H-indol-2-ylmethylene]-1,3-dihydro-indol-2-one]
19 | 12.8 | > 100 | CNS(=O)(=O)c1ccc2c(c1)C(=Cc1c(C)[nH]c3ccccc13)C(=O)N2 [IN-069, 3-(2-methyl-1H-indol-3-ylmethylene)-2-oxo-2,3-dihydro-1H-indole-5-sulfonic acid methylamide]
20 | 6.51 | > 100 | CN(C)S(=O)(=O)c1ccc2c(c1)C(=Cc1cc3ccccc3[nH]1)C(=O)N2 [IN-075, 3-(1H-indol-2-ylmethylene)-2-oxo-2,3-dihydro-1H-indole-5-sulfonic acid dimethylamide]
21 | 4.28 | > 20 | CN(C)S(=O)(=O)c1ccc2c(c1)C(=Cc1cc3cc(OCCN4CCOCC4)ccc3[nH]1)C(=O)N2 [IN-054, 3-[5-(2-morpholin-4-yl-ethoxy)-1H-indol-2-ylmethylene]-2-oxo-2,3-dihydro-1H-indole-5-sulfonic acid dimethylamide]
22 | > 20 | > 100 | Cc1[nH]c2ccccc2c1C=C1C(=O)Nc2ccc(S(N)(=O)=O)cc21 [IN-066, 3-(2-methyl-1H-indol-3-ylmethylene)-2-oxo-2,3-dihydro-1H-indole-5-sulfonic acid amide]
23 | 9.96 | 15.5 | O=C1Nc2ccc(S(=O)(=O)Nc3ccccc3)cc2C1=Cc1cc2cc(OCCN3CCOCC3)ccc2[nH]1 [IN-056, 3-[5-(2-morpholin-4-yl-ethoxy)-1H-indol-2-ylmethylene]-2-oxo-2,3-dihydro-1H-indole-5-sulfonic acid phenylamide]
24 | 1.02 | 1.16 | O=C1Nc2ccc(S(=O)(=O)N3CCc4cc(Br)ccc43)cc2C1=Cc1cc2cc(OCCN3CCCC3)ccc2[nH]1 [IN-052, 5-(5-bromo-2,3-dihydro-indole-1-sulfonyl)-3-[5-(2-pyrrolidin-1-yl-ethoxy)-1H-indol-2-ylmethylene]-1,3-dihydro-indol-2-one]
25 | 8.55 | > 20 | CN(c1cccc(Cl)c1)S(=O)(=O)c1ccc2c(c1)C(=Cc1cc3cc(OCCN4CCOCC4)ccc3[nH]1)C(=O)N2 [IN-060, 3-[5-(2-morpholin-4-yl-ethoxy)-1H-indol-2-ylmethylene]-2-oxo-2,3-dihydro-1H-indole-5-sulfonic acid (3-chloro-phenyl)-methyl-amide]
